Values belong to the molecule of their own block, whether it stands above or below them.
Key:
Or59c (pb3A) = molecular target: T1, Or59c (pb3A) (Drosophila melanogaster, UniProt Q9W1P7); assay: single sensillum recording (SSR), dose-response; conditions: native pb3A neuron, agonist; odor dilution
T1 construct: native receptor in pb3A maxillary palp neuron of wild-type flies; with Odorant receptor coreceptor
T1 sequence (Q9W1P7 1-411): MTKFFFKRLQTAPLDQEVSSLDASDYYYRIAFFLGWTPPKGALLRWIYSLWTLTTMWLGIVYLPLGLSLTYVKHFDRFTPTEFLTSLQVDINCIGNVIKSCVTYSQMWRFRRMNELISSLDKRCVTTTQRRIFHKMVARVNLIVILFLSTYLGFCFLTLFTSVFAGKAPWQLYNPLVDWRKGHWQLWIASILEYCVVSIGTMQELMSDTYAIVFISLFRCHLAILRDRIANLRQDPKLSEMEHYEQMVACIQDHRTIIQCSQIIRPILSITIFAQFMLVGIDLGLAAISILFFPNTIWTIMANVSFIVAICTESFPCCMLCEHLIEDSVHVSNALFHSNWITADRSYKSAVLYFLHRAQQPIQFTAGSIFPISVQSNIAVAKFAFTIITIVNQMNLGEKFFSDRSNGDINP
T1 sequence (Q9VNB5 1-486 partner): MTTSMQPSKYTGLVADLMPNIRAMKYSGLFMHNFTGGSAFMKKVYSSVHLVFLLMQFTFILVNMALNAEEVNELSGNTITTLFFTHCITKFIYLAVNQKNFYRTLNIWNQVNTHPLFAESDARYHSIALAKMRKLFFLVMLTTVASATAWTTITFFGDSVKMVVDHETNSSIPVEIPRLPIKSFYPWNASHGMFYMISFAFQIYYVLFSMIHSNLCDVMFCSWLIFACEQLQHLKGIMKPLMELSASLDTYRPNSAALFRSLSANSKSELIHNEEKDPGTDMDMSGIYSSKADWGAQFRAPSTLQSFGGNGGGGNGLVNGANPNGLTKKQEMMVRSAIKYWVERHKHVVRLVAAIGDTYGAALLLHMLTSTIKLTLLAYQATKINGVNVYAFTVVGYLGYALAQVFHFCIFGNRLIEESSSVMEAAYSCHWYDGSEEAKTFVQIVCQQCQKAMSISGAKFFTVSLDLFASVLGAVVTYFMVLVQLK
From the text: single sensillum recording (SSR), dose-response on Or59c (pb3A)

Or85a = molecular target: T2, Or85a (Drosophila melanogaster, UniProt Q9VHS4); assay: SSR and GC-SSR, dose-response; conditions: native antennal ab2B neuron, agonist; odor dilution
T2 construct: native receptor in antennal ab2B neuron of wild-type flies; with Odorant receptor coreceptor
T2 sequence (Q9VHS4 1-397): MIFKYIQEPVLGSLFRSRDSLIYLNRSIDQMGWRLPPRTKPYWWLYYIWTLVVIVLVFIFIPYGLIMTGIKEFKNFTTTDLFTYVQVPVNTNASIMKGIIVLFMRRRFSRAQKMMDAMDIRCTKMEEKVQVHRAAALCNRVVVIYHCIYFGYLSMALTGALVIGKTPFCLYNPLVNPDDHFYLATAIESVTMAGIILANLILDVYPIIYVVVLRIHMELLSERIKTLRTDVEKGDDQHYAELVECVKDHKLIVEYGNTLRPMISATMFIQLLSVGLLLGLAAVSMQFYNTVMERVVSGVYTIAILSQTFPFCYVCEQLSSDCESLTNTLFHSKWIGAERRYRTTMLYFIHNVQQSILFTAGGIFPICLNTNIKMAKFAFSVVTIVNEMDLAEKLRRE
T2 sequence (Q9VNB5 1-486 partner): T1 sequence (Q9VNB5 1-486 partner)

Or46a (pb2B) = molecular target: T3, Or46a (pb2B) (Drosophila melanogaster, UniProt P81919); assay: single sensillum recording (SSR), dose-response; conditions: native pb2B neuron, agonist; odor dilution
T3 construct: native receptor in pb2B maxillary palp neuron of wild-type flies; with Odorant receptor coreceptor
T3 sequence (P81919 1-381): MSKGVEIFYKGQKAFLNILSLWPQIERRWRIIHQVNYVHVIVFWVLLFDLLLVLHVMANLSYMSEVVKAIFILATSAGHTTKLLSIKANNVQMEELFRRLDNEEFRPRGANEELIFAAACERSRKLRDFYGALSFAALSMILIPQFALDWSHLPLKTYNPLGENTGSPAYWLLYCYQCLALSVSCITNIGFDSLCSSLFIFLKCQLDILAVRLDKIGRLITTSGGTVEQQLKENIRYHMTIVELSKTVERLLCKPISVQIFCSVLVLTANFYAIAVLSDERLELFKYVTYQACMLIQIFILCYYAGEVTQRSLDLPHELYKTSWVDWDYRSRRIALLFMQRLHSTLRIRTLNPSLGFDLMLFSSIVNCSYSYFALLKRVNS
T3 sequence (Q9VNB5 1-486 partner): T1 sequence (Q9VNB5 1-486 partner)
From the text: single sensillum recording (SSR), dose-response on Or46a (pb2B)

Or85d (pb3B) = molecular target: T4, Or85d (pb3B) (Drosophila melanogaster, UniProt Q9VHQ2); assay: single sensillum recording (SSR), dose-response; conditions: native pb3B neuron, agonist; odor dilution
T4 construct: native receptor in pb3B maxillary palp neuron of wild-type flies; with Odorant receptor coreceptor
T4 sequence (Q9VHQ2 1-412): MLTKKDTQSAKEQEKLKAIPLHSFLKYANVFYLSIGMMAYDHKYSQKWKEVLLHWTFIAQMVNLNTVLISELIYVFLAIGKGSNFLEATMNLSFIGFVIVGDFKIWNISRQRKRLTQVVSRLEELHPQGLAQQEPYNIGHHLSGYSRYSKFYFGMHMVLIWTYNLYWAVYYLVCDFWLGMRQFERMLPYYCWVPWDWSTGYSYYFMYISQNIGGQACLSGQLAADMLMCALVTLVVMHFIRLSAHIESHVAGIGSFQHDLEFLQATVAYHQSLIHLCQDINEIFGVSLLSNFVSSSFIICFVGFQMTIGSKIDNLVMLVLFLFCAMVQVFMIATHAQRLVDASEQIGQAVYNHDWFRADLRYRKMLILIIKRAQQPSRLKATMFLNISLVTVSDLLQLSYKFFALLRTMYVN
T4 sequence (Q9VNB5 1-486 partner): T1 sequence (Q9VNB5 1-486 partner)
From the text: single sensillum recording (SSR), dose-response on Or85d (pb3B)

Or67a = molecular target: T5, Or67a (Drosophila melanogaster, UniProt Q9VT08); assay: SSR and GC-SSR, dose-response; conditions: native antennal neuron, agonist; odor dilution
T5 construct: native receptor in antennal neuron (ab10) of wild-type flies; with Odorant receptor coreceptor
T5 sequence (Q9VT08 1-407): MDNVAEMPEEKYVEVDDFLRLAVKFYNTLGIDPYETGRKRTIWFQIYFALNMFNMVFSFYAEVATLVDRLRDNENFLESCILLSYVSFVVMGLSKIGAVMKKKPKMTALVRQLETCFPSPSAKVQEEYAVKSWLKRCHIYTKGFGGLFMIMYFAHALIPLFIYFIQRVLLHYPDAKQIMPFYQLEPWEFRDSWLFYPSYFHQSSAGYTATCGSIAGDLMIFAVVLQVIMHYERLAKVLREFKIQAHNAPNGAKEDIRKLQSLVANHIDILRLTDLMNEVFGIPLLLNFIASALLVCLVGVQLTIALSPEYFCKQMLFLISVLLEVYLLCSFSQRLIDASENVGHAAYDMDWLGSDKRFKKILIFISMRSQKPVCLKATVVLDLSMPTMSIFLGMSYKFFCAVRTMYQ
T5 sequence (Q9VNB5 1-486 partner): T1 sequence (Q9VNB5 1-486 partner)

Or71a (pb1B) = molecular target: T6, Or71a (pb1B) (Drosophila melanogaster, UniProt Q9VUK5); assay: single sensillum recording (SSR), dose-response; conditions: native pb1B neuron, agonist; odor dilution
T6 construct: native receptor in pb1B maxillary palp neuron of wild-type flies; with Odorant receptor coreceptor
T6 sequence (Q9VUK5 1-378): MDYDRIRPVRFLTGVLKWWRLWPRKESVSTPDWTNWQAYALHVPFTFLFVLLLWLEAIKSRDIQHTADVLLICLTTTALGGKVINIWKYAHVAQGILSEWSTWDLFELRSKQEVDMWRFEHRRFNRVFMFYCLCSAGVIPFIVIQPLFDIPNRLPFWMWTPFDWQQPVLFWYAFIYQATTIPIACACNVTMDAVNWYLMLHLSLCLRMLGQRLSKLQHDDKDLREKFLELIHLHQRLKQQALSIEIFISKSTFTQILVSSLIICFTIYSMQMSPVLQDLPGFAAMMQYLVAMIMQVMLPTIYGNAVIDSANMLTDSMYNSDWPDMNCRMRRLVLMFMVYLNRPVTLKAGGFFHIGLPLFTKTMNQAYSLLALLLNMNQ
T6 sequence (Q9VNB5 1-486 partner): T1 sequence (Q9VNB5 1-486 partner)
From the text: single sensillum recording (SSR), dose-response on Or71a (pb1B)

Or42a (pb1A) = molecular target: T7, Or42a (pb1A) (Drosophila melanogaster, UniProt Q9V9I2); assay: single sensillum recording (SSR), dose-response; conditions: native pb1A neuron, agonist; odor dilution
T7 construct: native receptor in pb1A maxillary palp neuron of wild-type flies; neuron-receptor match not tested by expression; with Odorant receptor coreceptor
T7 sequence (Q9V9I2 1-406): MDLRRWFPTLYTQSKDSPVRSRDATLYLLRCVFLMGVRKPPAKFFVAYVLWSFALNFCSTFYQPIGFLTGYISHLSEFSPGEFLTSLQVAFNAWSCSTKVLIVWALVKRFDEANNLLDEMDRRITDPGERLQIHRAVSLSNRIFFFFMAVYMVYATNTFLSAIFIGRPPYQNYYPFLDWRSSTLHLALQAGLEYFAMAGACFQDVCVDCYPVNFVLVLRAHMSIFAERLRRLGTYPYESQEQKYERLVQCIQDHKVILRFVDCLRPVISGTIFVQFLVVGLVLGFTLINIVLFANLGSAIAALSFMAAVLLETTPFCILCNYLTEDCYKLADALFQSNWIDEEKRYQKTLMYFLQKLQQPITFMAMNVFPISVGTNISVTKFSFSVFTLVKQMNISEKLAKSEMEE
T7 sequence (Q9VNB5 1-486 partner): T1 sequence (Q9VNB5 1-486 partner)
From the text: single sensillum recording (SSR), dose-response on Or42a (pb1A)

Detection threshold (Or59c (pb3A)): 10^-4 dilution | Detection threshold (Or85a): 10^-5 dilution
Compound: CCCCOC(=O)CC(C)O (stereo not drawn) [Butyl 3-hydroxy butyrate]

Detection threshold (Or85d (pb3B)): 10^-7 dilution | Detection threshold (Or67a): 10^-5 dilution
Compound: CCC(=O)OCCc1ccccc1 [Phenethyl propionate]

Detection threshold (Or71a (pb1B)): 10^-7 dilution
Compound: C=CCc1ccc(OC)c(OC)c1 [Methyleugenol]

The remaining lines, values behind:

Compound: Oc1ccccc1 [Phenol]
Detection threshold (Or46a (pb2B)): 10^-7 dilution

Compound: CC(=O)OCCc1ccccc1 [2-Phenethyl acetate]
Detection threshold (Or85d (pb3B)): 10^-7 dilution

Compound: C=CCC(=O)CC [5-hexen-3-one]
Detection threshold (Or42a (pb1A)): 10^-7 dilution

Compound: CCc1ccc(O)c(OC)c1 [4-ethylguaiacol]
Detection threshold (Or71a (pb1B)): 10^-7 dilution

Reference: article PMC4927298, “Olfactory channels associated with the Drosophila maxillary palp mediate short- and long-range attraction” (eLife, 2016)
